Experiment in all cases: Cell growth inhibition assay (CellTiter-Glo cell viability, 7 days)
What all share (type): cell-based

One assay deals with DLD-1 parental. To be noted: Homo sapiens, 168 h, DLD-1 parental cells. The source says:
Example A: Cell Growth Inhibition Assay
The objective of this study is to evaluate the effect of invention compounds on cell proliferation through the cell viability assay in DLD-1 BRCA2(−/−) and parental isogenic pair and MDA-MB-436 (mutated BRCA1) cell lines. The CellTiter-Glo (CTG) based cell viability assay is designed to determine the number of viable cells in the culture because of compound effect, by quantifying ATP, which indicates the presence of metabolically active cells.
DLD-1 BRCA2(−/−) and parental isogenic pair were cultured in RPMI 1640 supplemented with 10% fetal bovine serum (FBS), and MDA-MB-436 cells were cultured in DMEM supplemented with 10% FBS. Both are culture at 37° C. with 5% CO2. Invention compounds were distributed to the 384 well plate (Corning, 3764) using Echo acoustic liquid handler to form a 1:3 serially diluted final concentration with top dose of 10 or 30 μM. The cells were seeded into the plate in the density of 50 cells/well (DLD-1 parental), 200 cells/well (DLD-1 BRCA2−/−), or 500 cells/well (MDA-MB-436). After a short spun, the cells were cultured in a well moisturized incubator at 37° C. with 5% CO2 for 7 days without disturbance. The cell viability was measured by CellTiter Glo 2.0 assay kit (Promega, G9243), and growth inhibition rate was calculated and plotted against final compound concentration, and the data were fitted in Xfit to generate IC50.

Assay [1] deals with MDA-MB-436 (mutated BRCA1) cell lines. The settings on record: Homo sapiens, 168 h, MDA-MB-436 cells.
The next assay concerns DLD-1 BRCA2(−/−). To be noted: Homo sapiens, 168 h, DLD-1 BRCA2(-/-) cells.

Structures are written as SMILES.

On to `CCc1cc2ncc(CN3CCN(c4ccc(C(=O)NC)nc4)[C@@H](C)C3)cc2[nH]c1=O` (racemic) [Example 27], for which the EC50 (in general, the concentration that produces a half-maximal response) with DLD-1 parental stood at 32 µM; in assay [1], 1 nM; in the assay on DLD-1 BRCA2(−/−) it was 4.1 nM.

On to `CCc1cc2ncc(CN3CCN(c4ccc(C(=O)NC)nc4)[C@H](CF)C3)cc2[nH]c1=O` [Example 68], for which the EC50 was more than 30 µM with DLD-1 parental, 1.5 nM in assay [1] and 4.1 nM in the assay on DLD-1 BRCA2(−/−).

`CCc1cc2ccc(CN3CCN(c4ccc(C#N)cn4)CC3)cc2[nH]c1=O` [Example 9, 6-{4-[(3-ethyl-2-oxo-1H-quinolin-7-yl)methyl]piperazin-1-yl}pyridine-3-carbonitrile]: the EC50 is 13 µM with DLD-1 parental, 1.5 nM in assay [1] and 3.5 nM in the assay with DLD-1 BRCA2(−/−).

As to `CNC(=O)c1ccc(N2CCN(Cc3ccc4c5c(c(=O)[nH]c4c3)CCC5)CC2)cn1` [Example 10, N-methyl-5-[4-({4-oxo-1H,2H,3H,5H-cyclopenta[c]quinolin-7-yl}methyl)piperazin-1-yl]pyridine-2-carboxamide], the EC50 came to 1400 µM with DLD-1 parental, 0.68 nM in assay [1] and 2.6 nM in the assay with DLD-1 BRCA2(−/−).

With `CCc1cc2ncc(CN3CCN(c4cnc(C(=O)NC)s4)CC3)cc2[nH]c1=O` [Example 30], the values for the concentration for a half-maximal effect (EC50) (with DLD-1 parental; in assay [1]; with DLD-1 BRCA2(−/−)) were 40 µM, 58 nM and 220 nM, respectively.

On to `[2H]C([2H])(c1cnc2cc(CC)c(=O)[nH]c2c1)N1CCN(c2cnc(C(=O)NC)c(F)c2)CC1` [Example 35], for which the EC50 with DLD-1 parental was more than 30 µM; in assay [1], 1.3 nM; with DLD-1 BRCA2(−/−), 2.3 nM.

For the compound `CNC(=O)c1ccc(N2CCN(Cc3cnc4cc(C)c(=O)[nH]c4c3)CC2)cn1` [Example 33], the EC50 was more than 30 µM with DLD-1 parental, 3.1 nM in assay [1] and 6.5 nM in the assay with DLD-1 BRCA2(−/−).

For `CCc1cc2ncc(CN3CCN(c4ccc(C(=O)NC)nc4)[C@@H]4C[C@@H]43)cc2[nH]c1=O` (stereo in doubt) [Example 3A, rel-5-[(1R,6S)-5-[(7-ethyl-6-oxo-5H-1,5-naphthyridin-3-yl)methyl]-2,5-diazabicyclo[4.1.0]heptan-2-yl]-N-methylpyridine-2-carboxamide], the figures for the EC50 (in the assay with DLD-1 parental; in assay [1]; in the assay with DLD-1 BRCA2(−/−)) were more than 30 µM, 24 nM and 230 nM, respectively.

In the case of `CCc1cc2ncc(CN3CCN(c4ccc(C(=O)NC)nc4C#N)[C@H](C)C3)cc2[nH]c1=O` [Example 4, 6-cyano-5-[(2R)-4-[(7-ethyl-6-oxo-5H-1,5-naphthyridin-3-yl)methyl]-2-methylpiperazin-1-yl]-N-methylpyridine-2-carboxamide], the EC50 was more than 30 µM in the assay on DLD-1 parental, 0.69 nM in assay [1] and 1.6 nM in the assay with DLD-1 BRCA2(−/−).

Turning to `CCc1cc2ncc(CN3CCN(c4ccc(C(=O)NC)nc4C4CC4)CC3)cc2[nH]c1=O` [Example 6, 6-cyclopropyl-5-(4-((7-ethyl-6-oxo-5,6-dihydro-1,5-naphthyridin-3-yl)methyl)piperazin-1-yl)-N-methylpicolinamide], the figures for the EC50 (in the assay with DLD-1 parental; in assay [1]; in the assay with DLD-1 BRCA2(−/−)) were 11 µM, 1.7 nM and 2.8 nM, respectively.

For `CCc1cc2ncc(CN3CCN(c4ccc(C(=O)NC)c(F)c4)CC3)cc2[nH]c1=O` [Example 7, 4-{4-[(7-ethyl-6-oxo-5H-1,5-naphthyridin-3-yl)methyl]piperazin-1-yl}-2-fluoro-N-methylbenzamide], the EC50 with DLD-1 parental amounted to 300 µM; in assay [1] it was 1.3 nM; in the assay on DLD-1 BRCA2(−/−) it was 3.1 nM.

Take `CCc1cc2ncc(CN3CCN(c4ccc(C(=O)NC5CC5)nc4)CC3)cc2[nH]c1=O` [Example 12, N-cyclopropyl-5-{4-[(7-ethyl-6-oxo-5H-1,5-naphthyridin-3-yl)methyl]piperazin-1-yl}pyridine-2-carboxamide]: the figures for the EC50 (in the assay with DLD-1 parental; in assay [1]; in the assay on DLD-1 BRCA2(−/−)) were 51 µM, 0.62 nM and 1.1 nM, respectively.

As for `CCc1cc2ncc(CN3CCN(c4ccc(C(=O)NCC(F)F)nc4)CC3)cc2[nH]c1=O` [Example 13, N-(2,2-difluoroethyl)-5-{4-[(7-ethyl-6-oxo-5H-1,5-naphthyridin-3-yl)methyl]piperazin-1-yl} pyridine-2-carboxamide], the half-maximal effective concentration (EC50) in the assay on DLD-1 parental is more than 30 µM; in assay [1], 0.54 nM; with DLD-1 BRCA2(−/−), 1 nM.

As for `CCc1cc2ncc(CN3CCC(c4ccc(C(=O)NC)nc4)CC3)cc2[nH]c1=O` [Example 16, 5-(1-((7-ethyl-6-oxo-5,6-dihydro-1,5-naphthyridin-3-yl)methyl)piperidin-4-yl)-N-methylpicolinamide], the results for the EC50 (with DLD-1 parental; in assay [1]; in the assay with DLD-1 BRCA2(−/−)) were more than 30 µM, 1.3 nM and 4.2 nM, respectively.

For the compound `CCc1cc2ncc(CN3CCN(c4ccc(C(=O)NC)nc4)C[C@H]3C)cc2[nH]c1=O` (racemic) [Example 161], the EC50 is more than 10 µM in the assay with DLD-1 parental and 22 nM in the assay on DLD-1 BRCA2(−/−).

As for `CNC(=O)c1ccc(N2CCN([C@H](C)c3cnc4cc(C)c(=O)[nH]c4c3)CC2)cn1` (single isomer, unassigned) [Example 125], the EC50 was 13 nM in assay [1] and 8.5 nM in the assay on DLD-1 BRCA2(−/−).

In the case of `CCc1cc2ncc(CN3CCN4c5ccc(C(=O)NC)nc5OC[C@@H]4C3)cc2[nH]c1=O` [Example 22B, (10S)-12-[(7-ethyl-6-oxo-5H-1,5-naphthyridin-3-yl)methyl]-N-methyl-8-oxa-1,6,12-triazatricyclo[8.4.0.0^{2,7}]tetradeca-2,4,6-triene-5-carboxamide], the EC50 was 160 nM in assay [1] and 490 nM with DLD-1 BRCA2(−/−).

In the case of `CCc1cc2ncc(CN3CCN(c4ccc(C(=O)NC)nc4C#N)[C@H]4C[C@H]43)cc2[nH]c1=O` (single isomer, unassigned) [Example 76], the results for the EC50 (in assay [1]; with DLD-1 BRCA2(−/−)) were 0.98 nM and 1.6 nM, respectively.

For the compound `CNC(=O)c1ccc(N2CCN(Cc3cnc4cc(C)c(=O)[nH]c4c3)[C@H]3C[C@H]32)c(C#N)n1` (single isomer, unassigned) [Example 98], the EC50 in assay [1] came to 1.2 nM; in the assay on DLD-1 BRCA2(−/−) it was 2 nM.

Consider `CCc1cc2ncc(CN3CCN(c4ccc(C(=O)NC)c(=O)n4C)CC3)cc2[nH]c1=O` [Example 65], for which the EC50 in assay [1] worked out at 3.1 nM; with DLD-1 BRCA2(−/−), 13 nM.

As to `CNC(=O)c1ccc(N2CCN(Cc3cnc4cc(C5CC5)c(=O)[nH]c4c3)[C@H]3C[C@H]32)cn1` (single isomer, unassigned) [Example 110], the EC50 in assay [1] came out at 3.3 nM; with DLD-1 BRCA2(−/−), 5.7 nM.

In the case of `CCc1cc2ncc(CN3CCN(c4cccnc4C#N)CC3)cc2[nH]c1=O` [Example 128, 3-{4-[(7-ethyl-6-oxo-5H-1,5-naphthyridin-3-yl)methyl]piperazin-1-yl}pyridine-2-carbonitrile], the EC50 is 4.2 nM in assay [1] and 4.8 nM with DLD-1 BRCA2(−/−).

As for `CCc1cc2nnc(CN3CCN(c4ccc(C(=O)NC)nc4)CC3)cc2[nH]c1=O` [Example 86], the EC50 turned out to be 6.1 nM in assay [1] and 6 nM in the assay on DLD-1 BRCA2(−/−).

`[2H]C([2H])([2H])NC(=O)c1ccc(N2CCN(Cc3cnc4cc(CC)c(=O)[nH]c4c3)[C@H]3C[C@H]32)cn1` (racemic) [Example 90]: the EC50 in assay [1] came out at 4.3 nM; in the assay with DLD-1 BRCA2(−/−) it was 6.4 nM.

For the compound `CCc1cc2ncc(CN3CCN(c4ccc(C(=O)NC)nn4)CC3)cc2[nH]c1=O` [Example 61], the EC50 in assay [1] came to 4.8 nM; with DLD-1 BRCA2(−/−) it was 6.3 nM.

As for `CNC(=O)c1ccc(C2=CCN(Cc3cnc4cc(C5CC5)c(=O)[nH]c4c3)CC2)cn1` [Example 64], the values for the EC50 (in assay [1]; with DLD-1 BRCA2(−/−)) were 0.64 nM and 0.92 nM, respectively.

With `CCc1cc2ncc(CN3CCN(c4ccccn4)CC3)cc2[nH]c1=O` [Example 82, 3-ethyl-7-{[4-(pyridin-2-yl)piperazin-1-yl]methyl}-1H-1,5-naphthyridin-2-one], the EC50 in assay [1] worked out at 7.8 nM; with DLD-1 BRCA2(−/−) it was 10 nM.

`[2H]C([2H])([2H])NC(=O)c1ccc(N2CCN(C([2H])([2H])c3cnc4cc(C5CC5)c(=O)[nH]c4c3)CC2)cn1` [Example 116]: the EC50 worked out at 1.2 nM in assay [1] and 2 nM with DLD-1 BRCA2(−/−).

Regarding `[2H]C([2H])([2H])NC(=O)c1ccc(N2CCN(Cc3cnc4cc(CC)c(=O)[nH]c4c3)C[C@H]2C)c(C#N)n1` [Example 93], the EC50 was found to be 0.84 nM in assay [1] and 1.7 nM in the assay on DLD-1 BRCA2(−/−).

As to `CCNC(=O)c1ccc(N2CCN(Cc3cnc4cc(C5CC5)c(=O)[nH]c4c3)CC2)cn1` [Example 137], the EC50 in assay [1] came out at 1.3 nM; in the assay on DLD-1 BRCA2(−/−), 2.1 nM.

With `CCc1cc2ncc(CN3CCN(c4ccc(C(=O)N[C@H]5CCOC5)nc4)CC3)cc2[nH]c1=O` [Example 47], the 50% effective concentration (EC50) came out at 3.3 nM in assay [1] and 7.7 nM with DLD-1 BRCA2(−/−).

For the compound `N#Cc1ncccc1N1CCN(Cc2cnc3cc(C4CC4)c(=O)[nH]c3c2)CC1` [Example 129], the values for the EC50 (in assay [1]; with DLD-1 BRCA2(−/−)) were 7 nM and 15 nM, respectively.

For `CCc1cc2ncc(CN3CCN(c4ccc(C(=O)NCCOC)nc4)CC3)cc2[nH]c1=O` [Example 42], the 50% effective concentration (EC50) in assay [1] was 4.1 nM; in the assay with DLD-1 BRCA2(−/−) it was 3.3 nM.

With `CCc1nc2cnc(CN3CCN(c4ccc(C(=O)NC)nc4)CC3)cc2[nH]c1=O` [Example 87], the results for the EC50 (in assay [1]; with DLD-1 BRCA2(−/−)) were 5.3 nM and 6.5 nM, respectively.

In the case of `CCc1cc2ncc(CN3CCN(c4ccccc4C#N)CC3)cc2[nH]c1=O` [Example 130], the EC50 worked out at 2.3 nM in assay [1] and 3.3 nM in the assay with DLD-1 BRCA2(−/−).

The values above are taken from patent US11591331B2, “PARP1 inhibitors and uses thereof” (Xinthera, Inc., priority 2021, dated 2023).
